# pEC50: −log10 of the molar value.
# Biological target: T1, human GPR119 (Homo sapiens, UniProt Q8TDV5)
# T1 construct: expressed in transfected cells; host or cells: HEK293
# T1 sequence (Q8TDV5 1-335): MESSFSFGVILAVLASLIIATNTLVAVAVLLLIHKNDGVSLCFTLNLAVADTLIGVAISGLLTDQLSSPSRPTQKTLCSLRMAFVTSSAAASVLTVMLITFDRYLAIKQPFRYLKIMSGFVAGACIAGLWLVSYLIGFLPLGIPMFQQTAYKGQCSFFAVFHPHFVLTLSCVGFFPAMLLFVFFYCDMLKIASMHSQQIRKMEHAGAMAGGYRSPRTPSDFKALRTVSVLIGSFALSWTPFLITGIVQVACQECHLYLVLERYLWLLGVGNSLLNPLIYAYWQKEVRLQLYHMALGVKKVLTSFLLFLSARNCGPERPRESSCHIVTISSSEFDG
# Test: Measurement of GPR119 signaling using LANCE 384-well cAMP kit (LCMP assay)
# Format: cell-based
# Details: HEK293 cells stably transfected with human GPR119
# Method in brief: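 HEK293 cells stably expressing human GPR119, in stimulation buffer at pH 7.4 with 100 μM phosphodiesterase inhibitors, exposed to a 10-point compound dilution (2.5% DMSO final) for 45 min. cAMP measured by LANCE TR-FRET at 665 nm against a cAMP standard curve, normalized between DMSO basal and an internal agonist maximum, with a 4-parameter fit.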
row,Compound,pEC50
1,"CC(C)c1noc(N2CCC([C@H]3C[C@@H]3CCOc3ccc(S(C)(=O)=O)cc3F)CC2)n1 [Example 85, 5-(4-((1R,2R)-2-(2-(2-fluoro-4-(methylsulfonyl)phenoxy)ethyl)cyclopropyl)piperidin-1-yl)-3-isopropyl-1,2,4-oxadiazole]",7.77
2,"CC(C)c1noc(N2CCC([C@H]3C[C@@H]3CCOc3ccc(-n4cnnn4)c(F)c3)CC2)n1 [Example 86, 5-(4-((1R,2R)-2-(2-(3-fluoro-4-(1H-tetrazol-1-yl)phenoxy)ethyl)cyclopropyl)piperidin-1-yl)-3-isopropyl-1,2,4-oxadiazole]",7.89
3,"CC(C)c1noc(N2CCC([C@H]3C[C@@H]3CCOc3ccc(S(C)(=O)=O)c(F)c3)CC2)n1 [Example 87, 5-(4-((1R,2R)-2-(2-(3-fluoro-4-(methylsulfonyl)phenoxy)ethyl)cyclopropyl)piperidin-1-yl)-3-isopropyl-1,2,4-oxadiazole]",7.96
4,"CC(C)c1noc(N2CCC([C@@H]3C[C@H]3CCOc3ccc(N4CCNC4=O)cc3F)CC2)n1 [Example 88, 1-(3-fluoro-4-(2-((1S,2S)-2-(1-(3-isopropyl-1,2,4-oxadiazol-5-yl)piperidin-4-yl)cyclopropyl)ethoxy)phenyl)imidazolidin-2-one]",7.74
5,"COCc1noc(N2CCC([C@@H]3C[C@H]3CCOc3ccc(-n4cnnn4)cc3F)CC2)n1 [Example 89, 5-(4-((1S,2S)-2-(2-(2-fluoro-4-(1H-tetrazol-1-yl)phenoxy)ethyl)cyclopropyl)piperidin-1-yl)-3-(methoxymethyl)-1,2,4-oxadiazole]",7.64
6,"COCc1noc(N2CCC([C@H]3C[C@@H]3CCOc3ccc(-n4cnnn4)cc3F)CC2)n1 [Example 90, 5-(4-((1R,2R)-2-(2-(2-fluoro-4-(1H-tetrazol-1-yl)phenoxy)ethyl)cyclopropyl)piperidin-1-yl)-3-(methoxymethyl)-1,2,4-oxadiazole]",7.70
7,"COCc1noc(N2CCC([C@@H]3C[C@H]3CCOc3ccc(CC(=O)N4CCC4)c(F)c3)CC2)n1 [Example 91, 1-(azetidin-1-yl)-2-(2-fluoro-4-(2-((1S,2S)-2-(1-(3-(methoxymethyl)-1,2,4-oxadiazol-5-yl)piperidin-4-yl)cyclopropyl)ethoxy)phenyl)ethanone]",7.72
8,"CCS(=O)(=O)c1ccc(OCC[C@H]2C[C@@H]2C2CCN(c3nc(C(C)C)no3)CC2)c(F)c1 [Example 92, 5-(4-((1R,2R)-2-(2-(4-(ethylsulfonyl)-2-fluorophenoxy)ethyl)cyclopropyl)piperidin-1-yl)-3-isopropyl-1,2,4-oxadiazole]",7.89
9,"COCc1noc(N2CCC([C@H]3C[C@@H]3CCOc3ccc(CC(=O)N(C)C)c(F)c3)CC2)n1 [Example 93, 2-(2-fluoro-4-(2-((1R,2R)-2-(1-(3-(methoxymethyl)-1,2,4-oxadiazol-5-yl)piperidin-4-yl)cyclopropyl)ethoxy)phenyl)-N,N-dimethylacetamide]",7.74
10,"CC1(OC(=O)N2CCC([C@@H]3C[C@H]3CCOc3ccc(S(C)(=O)=O)c(F)c3)CC2)CC1 [Example 94, 1-methylcyclopropyl 4-((1S,2S)-2-(2-(3-fluoro-4-(methylsulfonyl)phenoxy)ethyl)cyclopropyl)piperidine-1-carboxylate]",7.64

# Now those with a higher pEC50, led by results:
row,pEC50,Compound
1,8.06,"CN(C)C(=O)Cc1ccc(OCC[C@@H]2C[C@H]2C2CCN(C(=O)OC3(C)CC3)CC2)cc1F [Example 99, 1-methylcyclopropyl 4-((1S,2S)-2-(2-(4-(2-(dimethylamino)-2-oxoethyl)-3-fluorophenoxy)ethyl)cyclopropyl)piperidine-1-carboxylate]"
2,8.09,"CC1(OC(=O)N2CCC([C@@H]3C[C@H]3CCOc3ccc(-n4cnnn4)cc3F)CC2)CC1 [Example 96, 1-methylcyclopropyl 4-((1S,2S)-2-(2-(2-fluoro-4-(1H-tetrazol-1-yl)phenoxy)ethyl)cyclopropyl)piperidine-1-carboxylate]"
3,8.20,"CC1(OC(=O)N2CCC([C@H]3C[C@@H]3CCOc3ccc(CC(=O)N4CCC4)cc3F)CC2)CC1 [Example 98, 1-methylcyclopropyl 4-((1R,2R)-2-(2-(4-(2-(azetidin-1-yl)-2-oxoethyl)-2-fluorophenoxy)ethyl)cyclopropyl)piperidine-1-carboxylate]"
4,8.26,"CN(C)C(=O)Cc1ccc(OCC[C@H]2C[C@@H]2C2CCN(C(=O)OC3(C)CC3)CC2)cc1F [Example 100, 1-methylcyclopropyl 4-((1R,2R)-2-(2-(4-(2-(dimethylamino)-2-oxoethyl)-3-fluorophenoxy)ethyl)cyclopropyl)piperidine-1-carboxylate]"
5,8.28,"COCc1noc(N2CCC([C@@H]3C[C@H]3CCOc3cc(F)c(CC(=O)N4CCC4)c(F)c3)CC2)n1 [Example 83, 1-(azetidin-1-yl)-2-(2,6-difluoro-4-(2-((1S,2S)-2-(1-(3-(methoxymethyl)-1,2,4-oxadiazol-5-yl)piperidin-4-yl)cyclopropyl)ethoxy)phenyl)ethanone]"
6,8.38,"CC1(OC(=O)N2CCC([C@@H]3C[C@H]3CCOc3ccc(CC(=O)N4CCC4)c(F)c3)CC2)CC1 [Example 97, 1-methylcyclopropyl 4-((1S,2S)-2-(2-(4-(2-(azetidin-1-yl)-2-oxoethyl)-3-fluorophenoxy)ethyl)cyclopropyl)piperidine-1-carboxylate]"
7,8.52,"COCc1noc(N2CCC([C@H]3C[C@@H]3CCOc3cc(F)c(CC(=O)N(C)C)c(F)c3)CC2)n1 [Example 84, 2-(2,6-difluoro-4-(2-((1R,2R)-2-(1-(3-(methoxymethyl)-1,2,4-oxadiazol-5-yl)piperidin-4-yl)cyclopropyl)ethoxy)phenyl)-N,N-dimethylacetamide]"
8,8.59,"CC1(OC(=O)N2CCC([C@H]3C[C@@H]3CCOc3ccc(CC(=O)N4CCC4)c(F)c3)CC2)CC1 [Example 95, 1-methylcyclopropyl 4-((1R,2R)-2-(2-(4-(2-(azetidin-1-yl)-2-oxoethyl)-3-fluorophenoxy)ethyl)cyclopropyl)piperidine-1-carboxylate]"
9,8.62,"COCc1noc(N2CCC([C@H]3C[C@@H]3CCOc3cc(F)c(CC(=O)N4CCC4)c(F)c3)CC2)n1 [Example 80, 1-(azetidin-1-yl)-2-(2,6-difluoro-4-(2-((1R,2R)-2-(1-(3-(methoxymethyl)-1,2,4-oxadiazol-5-yl)piperidin-4-yl)cyclopropyl)ethoxy)phenyl)ethanone]"
10,8.70,"CC1(OC(=O)N2CCC([C@@H]3C[C@H]3CCOc3cc(F)c(CC(=O)N4CCC4)c(F)c3)CC2)CC1 [Example 101, 1-methylcyclopropyl 4-((1S,2S)-2-(2-(4-(2-(azetidin-1-yl)-2-oxoethyl)-3,5-difluorophenoxy)ethyl)cyclopropyl)piperidine-1-carboxylate]"
11,9.17,"CC(C)c1noc(N2CCC([C@H]3C[C@@H]3CCOc3cc(F)c(CC(=O)N(C)C)c(F)c3)CC2)n1 [Example 81, 2-(2,6-difluoro-4-(2-((1R,2R)-2-(1-(3-isopropyl-1,2,4-oxadiazol-5-yl)piperidin-4-yl)cyclopropyl)ethoxy)phenyl)-N,N-dimethylacetamide]"
12,9.29,"CC(C)c1noc(N2CCC([C@@H]3C[C@H]3CCOc3cc(F)c(CC(=O)N4CCC4)c(F)c3)CC2)n1 [Example 82, 1-(azetidin-1-yl)-2-(2,6-difluoro-4-(2-((1S,2S)-2-(1-(3-isopropyl-1,2,4-oxadiazol-5-yl)piperidin-4-yl)cyclopropyl)ethoxy)phenyl)ethanone]"

# From patent US20150274664A1 (MERCK SHARP & DOHME CORP., priority 2012, published 2015)
